# Patent publication US6949250B2, “Selective algaecides for control of cyanochloronta” (The United States of America as represented by the …, priority 2002, dated 2005)
# Like-named read-outs stand apart in the source and are kept apart here.
# How the values were obtained:
# [1] = test system: Oscillatoria perornata; assay: Rapid bioassay screening for selective algicides (LOEC, LCIC); format: cell-based; settings: rapid screening; for MIC: read-out: LCIC (lowest-complete-inhibition concentration), Oscillatoria perornata; for minimal effective concentration: read-out: LOEC (lowest-observed-effect concentration), Oscillatoria perornata
# [2] = test system: Selenastrum capricornutum; assay: as above; format: cell-based; settings: rapid screening
# [3] = test system: Oscillatoria perornata; assay: 96-hour IC50 determination; format: cell-based; settings: for IC50: 96-hour 50% inhibition concentration; for selective toxicity towards O. perornata compared to S. capricornutum (result in words): based on laboratory screening and IC50 results
# Experimental: (§1) The green alga Selenastrum capricornutum (obtained from the United States Environmental Protection Agency, Corvallis, Oreg.) was used as the representative green algal species in the bioassay since it is a common species found in southeastern United States catfish ponds. […] In addition, a 96-hour 50% inhibition concentration (IC50) was determined for DNA1-19-1 and DNA2-59-1 by using the method described by Schrader et al. (1998b). Stock solutions of DNA1-19-1 and DNA2-59-1 were prepared so that final concentrations screened for 96-hour IC50 determinations were as follows: 1) 0, 0.01, 0.033, 0.1, 0.333, 1.0, 3.3, and 10.0 μM DNA1-19-1 for both O. perornata and S. capricornutum; 2) 0, 0.003, 0.01, 0.033, 0.1, 0.333, 1.0, and 3.333 μM DNA2-59-1 for O. perornata; and 3) 0, 0.1, 0.333, 1.0, 3.333, 10.0, 33.333, and 100.0 μM DNA2-59-1 for S. capricornutum. Estimation of the IC50 was determined by plotting 96-hour absorbance readings against logarithmic dilution values of the anthraquinone analogs.
# (§2) The green alga Selenastrum capricornutum (obtained from the United States Environmental Protection Agency, Corvallis, Oreg.) was used as the representative green algal species in the bioassay since it is a common species found in southeastern United States catfish ponds. […] Stock solutions of DNA1-19-1 and DNA2-59-1 were prepared so that final concentrations screened for 96-hour IC50 determinations were as follows: 1) 0, 0.01, 0.033, 0.1, 0.333, 1.0, 3.3, and 10.0 μM DNA1-19-1 for both O. perornata and S. capricornutum; 2) 0, 0.003, 0.01, 0.033, 0.1, 0.333, 1.0, and 3.333 μM DNA2-59-1 for O. perornata; and 3) 0, 0.1, 0.333, 1.0, 3.333, 10.0, 33.333, and 100.0 μM DNA2-59-1 for S. capricornutum. Estimation of the IC50 was determined by plotting 96-hour absorbance readings against logarithmic dilution values of the anthraquinone analogs.
# [4] = test system: Selenastrum capricornutum; assay: 96-hour IC50 determination; format: cell-based; settings: 96-hour 50% inhibition concentration, read-out: IC50, Selanastrum capricornutum
# Experimental: as §1, §2
# [5] = Solubility in water; format: physicochemical
Structure (SMILES),MIC [1] [µM],minimal effective concentration [1] [nM],"LCIC (lowest-complete-inhibition concentration), Selenastrum capricornutum [2]","LOEC (lowest-observed-effect concentration), Selenastrum capricornutum [2]",IC50 [3] [nM],selective toxicity towards O. perornata compared to S. capricornutum (result in words) [3],IC50 [4] [nM],solubility in water [5],MIC ([1]; Planktothrix perornata) [µM],minimal effective concentration ([1]; Planktothrix perornata) [nM],"MIC ([2]; Selenastrum capricornutum, read-out: LCIC (lowest-complete-inhibition concentration), Selenastrum capricornutum) [µM]","minimal effective concentration ([2]; Selenastrum capricornutum, read-out: LOEC (lowest-observed-effect concentration), Selenastrum capricornutum) [µM]",IC50 ([3]; Planktothrix perornata) [nM],IC50 ([4]; Selenastrum capricornutum) [nM]
"CCN(CC)CCCC(C)NCc1ccc2c(c1)C(=O)c1ccccc1C2=O.O=P(O)(O)O.O=P(O)(O)O (stereo not shown) [DNA1-19-1, 2-[methylamino-N-(1′-methyl-4′-N,N-diethylaminobutyl)]-9,10-anthraquinone diphosphate]",0.1,10,"10,000 nM","10,000 nM",63,very selectively toxic,5010,soluble in water,,,,,,
"CC(C)NCc1ccc2c(c1)C(=O)c1ccccc1C2=O [DNA2-59-1, 2-[methylamino-N-(1′-methylethyl)]-9,10-anthraquinone monophosphate]",,,,,,very selectively toxic,,soluble in water,0.1,10,100,10,6.3,5620
